Values belong to the compound of their own block, whether it stands above or below them.
What was measured:
Uromyces viciae-fabae = Uromyces viciae-fabae / field bean / leaf disc preventative (faba-bean rust); format: in vivo; settings: foliar, 288 h, 100 ppm in the applied formulation, field bean leaf discs, compared to untreated, read-out: disease control
Protocol: Leaf disks or leaf segments of various plant species are cut from plants grown in a greenhouse. The cut leaf disks or segments are placed in multiwell plates (24-well format) onto water agar. The leaf disks are sprayed with a test solution before (preventative) or after (curative) inoculation. Compounds to be tested are prepared as DMSO solutions (max. 10 mg/ml) which are diluted to the appropriate concentration with 0.025% Tween20 just before spraying. The inoculated leaf disks or segments are incubated under defined conditions (temperature, relative humidity, light, etc.) according to the respective test system. A single evaluation of disease level is carried out 3 to 14 days after inoculation, depending on the pathosystem. Percent disease control relative to the untreated check leaf disks or segments is then calculated. Field bean leaf discs are placed on water agar in multiwell plates (96-well format) and 10 μl of the formulated test compound diluted in acetone and a spreader pipetted onto the leaf disc. Two hours after application leaf discs are inoculated by spraying a spore suspension on the lower leaf surface. The leaf discs are incubated in a climate cabinet at 22° C. with 18 hour light/day and 70% relative humidity. The activity of a compound is assessed as percent disease control compared to untreated when an appropriate level of disease damage appears in untreated check leaf disks (12 days after application). The following compounds at 100 ppm in the applied formulation give at least 80% disease control in this test when compared to untreated control leaf discs under the same conditions, which show extensive disease development.

[1] = tested on: Puccinia recondita f. Sp. Tritici; assay: Puccinia recondita f. sp. tritici / wheat / leaf disc preventative (brown rust); format: in vivo; settings: foliar, 200 ppm in the applied formulation, wheat leaf segments cv. Kanzler, preventative (inoculated 1 day after application), compared to untreated, read-out: disease control
In short: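 Preventative leaf-segment test: compound at 200 ppm applied by spray to Kanzler wheat, with spore inoculation following after one day. Disease control relative to untreated check read 7 to 9 days post-application, incubation at 19° C., 75% relative humidity, 12 h light/12 h dark.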

Phakopsora pachyrhizi = Phakopsora pachyrhizi / soybean / leaf disc preventative (Asian soybean rust); format: in vivo; settings: foliar, 200 ppm in the applied formulation, soybean leaf disks, compared to untreated, read-out: disease control
In short: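 Read-out is percent disease control relative to untreated check discs, assessed once untreated discs show adequate disease, 12 to 14 days after application. Compounds, tested at 200 ppm in the applied formulation, are sprayed onto soybean leaf discs one day before inoculation with a spore suspension.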

[2] = tested on: Puccinia recondita f. Sp. Tritici; assay: Puccinia recondita f. sp. tritici / wheat / leaf disc curative (brown rust); format: in vivo; settings: foliar, 24 h, 200 ppm in the applied formulation, wheat leaf segments cv. Kanzler, curative (applied 1 day after inoculation), compared to untreated, read-out: disease control
In short: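 Curative leaf-segment test, cv. Kanzler: spore inoculation, dark storage 19° C/75% RH, compound spray 1 day post-inoculation. Then 12 h light/12 h dark, 19° C, 75% RH. Read-out: % disease control vs untreated check, 6–8 d after application.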

[3] = tested on: Glomerella lacenarium (Colletotrichum lagenarium); assay: Glomerella lagenarium liquid culture / cucumber / preventative (anthracnose); format: cell-based; settings: Colletotrichum orbiculare; 20 ppm in the applied formulation; liquid culture (PDB), growth inhibition measured photometrically 3 to 4 days after application; compared to untreated; read-out: disease control
In short: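 Conidia from cryogenic storage were mixed into potato dextrose broth. This was added to compound diluted from DMSO into 0.025% Tween20, tested at 20 ppm. Plates were incubated in the dark at 24 °C and 96% relative humidity, and growth was read photometrically after 2–7 days as % activity versus untreated check.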

Compound: O=C(CCCCC(F)(F)F)NCc1ccc(-c2noc(C(F)(F)F)n2)cc1 [Compound 1.18, 6,6,6-trifluoro-N-[[4-[5-(trifluoromethyl)-1,2,4-oxadiazol-3-yl]phenyl]methyl]hexanamide]
pest or weed control at 100 ppm (Uromyces viciae-fabae): ≥ 80%
pest or weed control at 200 ppm [1]: ≥ 80%
pest or weed control at 200 ppm (Phakopsora pachyrhizi): ≥ 80%

Compound: CCC(CC(=O)NCc1ccc(-c2noc(C(F)(F)F)n2)cc1)C(F)(F)F (stereo not drawn) [Compound 1.24, 3-(trifluoromethyl)-N-[[4-[5-(trifluoromethyl)-1,2,4-oxadiazol-3-yl]phenyl]methyl]pentanamide]
pest or weed control at 100 ppm (Uromyces viciae-fabae): ≥ 80%

melting point: 66 to 70 °C
Compound: CC(OC(F)F)C(=O)NCc1ccc(-c2noc(C(F)(F)F)n2)cc1 (stereo not drawn) [Compound 1.33, 2-(difluoromethoxy)-N-[[4-[5-(trifluoromethyl)-1,2,4-oxadiazol-3-yl]phenyl]methyl]propanamide]
pest or weed control at 200 ppm [2]: ≥ 80%
inhibition of growth at 20 ppm [3]: ≥ 80%
pest or weed control at 200 ppm [1]: ≥ 80%
pest or weed control at 200 ppm (Phakopsora pachyrhizi): ≥ 80%

melting point: 118 to 128 °C
Compound: CCC(=O)NCC(F)c1ccc(-c2noc(C(F)(F)F)n2)cc1 (stereo not drawn) [Compound 1.107, N-[2-fluoro-2-[4-[5-(trifluoromethyl)-1,2,4-oxadiazol-3-yl]phenyl]ethyl]propanamide]
pest or weed control at 200 ppm [2]: ≥ 80%
inhibition of growth at 20 ppm [3]: ≥ 80%
pest or weed control at 200 ppm [1]: ≥ 80%
pest or weed control at 200 ppm (Phakopsora pachyrhizi): ≥ 80%

melting point: 99 to 110 °C
Compound: CCC(=O)NCc1ccc(-c2noc(C(F)(F)F)n2)cc1F [Compound 1.26, N-[[2-fluoro-4-[5-(trifluoromethyl)-1,2,4-oxadiazol-3-yl]phenyl]methyl]propanamide]
pest or weed control at 200 ppm [2]: ≥ 80%
inhibition of growth at 20 ppm [3]: ≥ 80%
pest or weed control at 200 ppm [1]: ≥ 80%
pest or weed control at 200 ppm (Phakopsora pachyrhizi): ≥ 80%

melting point: 118 to 125 °C
Compound: CN(C)C(=O)NCc1ccc(-c2noc(C(F)(F)F)n2)cc1 [Compound 3.1, 1,1-dimethyl-3-[[4-[5-(trifluoromethyl)-1,2,4-oxadiazol-3-yl]phenyl]methyl]urea]
pest or weed control at 200 ppm [2]: ≥ 80%
inhibition of growth at 20 ppm [3]: ≥ 80%
pest or weed control at 200 ppm [1]: ≥ 80%
pest or weed control at 200 ppm (Phakopsora pachyrhizi): ≥ 80%

melting point: 82 to 85 °C
Compound: COCCOC(=O)NCc1ccc(-c2noc(C(F)(F)F)n2)cc1 [Compound 2.3, 2-methoxyethyl N-[[4-[5-(trifluoromethyl)-1,2,4-oxadiazol-3-yl]phenyl]methyl]carbamate]
pest or weed control at 200 ppm [2]: ≥ 80%
inhibition of growth at 20 ppm [3]: ≥ 80%
pest or weed control at 200 ppm [1]: ≥ 80%
pest or weed control at 200 ppm (Phakopsora pachyrhizi): ≥ 80%

Compound: C=C(C)C(=O)NCc1ccc(-c2noc(C(F)(F)F)n2)cc1 [Compound 1.16, 2-methyl-N-[[4-[5-(trifluoromethyl)-1,2,4-oxadiazol-3-yl]phenyl]methyl]prop-2-enamide]
pest or weed control at 100 ppm (Uromyces viciae-fabae): ≥ 80%
inhibition of growth at 20 ppm [3]: ≥ 80%
pest or weed control at 200 ppm [1]: ≥ 80%
pest or weed control at 200 ppm (Phakopsora pachyrhizi): ≥ 80%

melting point: 198 to 201 °C
Compound: CNC(=O)NCc1ccc(-c2noc(C(F)(F)F)n2)cc1 [Compound 3.4, 1-methyl-3-[[4-[5-(trifluoromethyl)-l,2,4-oxadiazol-3-yl]phenyl]methyl]urea]
pest or weed control at 200 ppm [2]: ≥ 80%
inhibition of growth at 20 ppm [3]: ≥ 80%
pest or weed control at 200 ppm [1]: ≥ 80%
pest or weed control at 200 ppm (Phakopsora pachyrhizi): ≥ 80%

melting point: 185 to 186 °C
Compound: CCC(=O)NC(C#N)c1ccc(-c2noc(C(F)(F)F)n2)cc1 (stereo not drawn) [Compound 1.100, N-[cyano-[4-[5-(trifluoromethyl)-1,2,4-oxadiazol-3-yl]phenyl]methyl]propanamide]
pest or weed control at 200 ppm [2]: ≥ 80%
inhibition of growth at 20 ppm [3]: ≥ 80%
pest or weed control at 200 ppm [1]: ≥ 80%
pest or weed control at 200 ppm (Phakopsora pachyrhizi): ≥ 80%

melting point: 108 to 110 °C
Compound: CCC(=O)NCc1ccc(-c2noc(C(F)(F)F)n2)c(F)c1 [Compound 1.34, N-[[3-fluoro-4-[5-(trifluoromethyl)-1,2,4-oxadiazol-3-yl]phenyl]methyl]propanamide]
pest or weed control at 200 ppm [2]: ≥ 80%
inhibition of growth at 20 ppm [3]: ≥ 80%
pest or weed control at 200 ppm [1]: ≥ 80%
pest or weed control at 200 ppm (Phakopsora pachyrhizi): ≥ 80%

melting point: 107.8 to 109.7 °C
Compound: CCCOC(=O)NCc1ccc(-c2noc(C(F)(F)F)n2)cc1 [Compound 2.6, propyl N-[[4-[5-(trifluoromethyl)-1,2,4-oxadiazol-3-yl]phenyl]methyl]carbamate]
pest or weed control at 200 ppm [2]: ≥ 80%
inhibition of growth at 20 ppm [3]: ≥ 80%
pest or weed control at 200 ppm [1]: ≥ 80%
pest or weed control at 200 ppm (Phakopsora pachyrhizi): ≥ 80%

melting point: 80 to 84 °C
Compound: CON(C)C(=O)NCCc1ccc(-c2noc(C(F)(F)F)n2)cc1 [Compound 3.5, 1-methoxy-1-methyl-3-[2-[4-[5-(trifluoromethyl)-1,2,4-oxadiazol-3-yl]phenyl]ethyl]urea]
pest or weed control at 200 ppm [2]: ≥ 80%
inhibition of growth at 20 ppm [3]: ≥ 80%
pest or weed control at 200 ppm [1]: ≥ 80%
pest or weed control at 200 ppm (Phakopsora pachyrhizi): ≥ 80%

melting point: 142 to 146 °C
Compound: CCC(=O)NC(C)(C)c1ccc(-c2noc(C(F)(F)F)n2)cc1 [Compound 1.93, N-[1-methyl-1-[4-[5-(trifluoromethyl)-1,2,4-oxadiazol-3-yl]phenyl]ethyl]propanamide]
pest or weed control at 200 ppm [2]: ≥ 80%
inhibition of growth at 20 ppm [3]: ≥ 80%
pest or weed control at 200 ppm [1]: ≥ 80%
pest or weed control at 200 ppm (Phakopsora pachyrhizi): ≥ 80%

melting point: 90 to 94 °C
Compound: CC(O)C(=O)NCc1ccc(-c2noc(C(F)(F)F)n2)cc1 (stereo not drawn) [Compound 1.28, 2-hydroxy-N-[[4-[5-(trifluoromethyl)-1,2,4-oxadiazol-3-yl]phenyl]methyl]propanamide]
pest or weed control at 200 ppm [2]: ≥ 80%
inhibition of growth at 20 ppm [3]: ≥ 80%
pest or weed control at 200 ppm [1]: ≥ 80%
pest or weed control at 200 ppm (Phakopsora pachyrhizi): ≥ 80%

melting point: 77 to 80 °C
Compound: COC(C)(C)C(=O)NCc1ccc(-c2noc(C(F)(F)F)n2)cc1 [Compound 1.103, 2-methoxy-2-methyl-N-[[4-[5-(trifluoromethyl)-1,2,4-oxadiazol-3-yl]phenyl]methyl]propanamide]
pest or weed control at 200 ppm [2]: ≥ 80%
inhibition of growth at 20 ppm [3]: ≥ 80%
pest or weed control at 200 ppm [1]: ≥ 80%
pest or weed control at 200 ppm (Phakopsora pachyrhizi): ≥ 80%

melting point: 146 to 149 °C
Compound: O=C(NCc1ccc(-c2noc(C(F)(F)F)n2)cc1)C(F)(F)F [Compound 1.102, 2,2,2-trifluoro-N-[[4-[5-(trifluoromethyl)-1,2,4-oxadiazol-3-yl]phenyl]methyl]acetamide]
pest or weed control at 200 ppm [2]: ≥ 80%
inhibition of growth at 20 ppm [3]: ≥ 80%
pest or weed control at 200 ppm [1]: ≥ 80%
pest or weed control at 200 ppm (Phakopsora pachyrhizi): ≥ 80%

melting point: 127 to 128 °C
Compound: COCC(=O)NCc1ccc(-c2noc(C(F)(F)F)n2)cc1 [Compound 1.25, 2-methoxy-N-[[4-[5-(trifluoromethyl)-1,2,4-oxadiazol-3-yl]phenyl]methyl]acetamide]
pest or weed control at 200 ppm [2]: ≥ 80%
inhibition of growth at 20 ppm [3]: ≥ 80%
pest or weed control at 200 ppm [1]: ≥ 80%
pest or weed control at 200 ppm (Phakopsora pachyrhizi): ≥ 80%

melting point: 121 to 128 °C
Compound: CCC(=O)NC1(c2ccc(-c3noc(C(F)(F)F)n3)cc2)CC1 [Compound 1.99, N-[1-[4-[5-(trifluoromethyl)-1,2,4-oxadiazol-3-yl]phenyl]cyclopropyl]propanamide]
pest or weed control at 200 ppm [2]: ≥ 80%
inhibition of growth at 20 ppm [3]: ≥ 80%
pest or weed control at 200 ppm [1]: ≥ 80%
pest or weed control at 200 ppm (Phakopsora pachyrhizi): ≥ 80%

melting point: 130 to 135 °C
Compound: CC(=O)NCc1ccc(-c2noc(C(F)(F)F)n2)cc1 [Compound 1.101, N-[[4-[5-(trifluoromethyl)-1,2,4-oxadiazol-3-yl]phenyl]methyl]acetamide]
pest or weed control at 200 ppm [2]: ≥ 80%
inhibition of growth at 20 ppm [3]: ≥ 80%
pest or weed control at 200 ppm [1]: ≥ 80%
pest or weed control at 200 ppm (Phakopsora pachyrhizi): ≥ 80%
